Reference: patent US20210283053A1, “LIQUID FORMULATIONS OF GLUCAGON ANALOGUES” (Zealand Pharma A/S, priority 2020, published 2021)

System: RYGB-operated individuals with confirmed postprandial hypoglycaemia
Test: Crossover study with liquid mixed meal test, postprandial hypoglycaemia after Roux-en-Y gastric bypass
Format: in vivo, human
Conditions: for time spent in level 2 hypoglycaemia (<3.1 mmol/l): n=5, placebo 31.0±5; for nadir PG: placebo 3.0±0.2; for time spent in hypoglycaemia (<3.9 mmol/l): placebo 62.0±8; for PG incremental AUC (iAUC70-240 min) after drug administration: placebo 752±19, p<0.0001
Text: Postprandial hypoglycaemia is a frequent and debilitating complication following Roux-en-Y gastric bypass (RYGB), and no effective treatment exists. In a proof-of-concept study, we investigated the effects of dasiglucagon, a novel, stable glucagon analogue, on postprandial hypoglycaemia after RYGB. The primary aim of the present study was to examine the effects of two doses of dasiglucagon on the postprandial nadir plasma glucose concentration (PG) and time spent in hypoglycaemia (<3.9 mmol/l) in RYGB-operated individuals with confirmed postprandial hypoglycaemia.
Ten RYGB-operated individuals (two males, eight females; BMI 34.6 (21.8-39.0) kg/m^2; age 46 (29-67) years; HbA1c 32 (29-42) mmol/mol; time since operation 9.3 (6-11.5) years; weight loss since operation 53.9 (25.1-92.0) kg)) with confirmed symptomatic postprandial hypoglycaemia (PG<3.5 mmol/l verified by a 6-day continuous glucose monitoring) completed a double-blinded, randomised, crossover study comprising three separate treatment days, each including a standardised liquid mixed meal test (25 kJ per kg body mass; 50 E % carbohydrates, 35 E % fat and 15 E % protein). A subcutaneous injection of either placebo, 80 or 200 μg dasiglucagon (D80μg and D200μg) was administered after the postprandial PG peak, approximately 10 minutes before the projected time point where the PG returned to fasting levels using a subject-specific linear regression model. Blood sampling and assessment of hypoglycaemic symptoms, by the Edinburgh Hypoglycaemia Symptom Scale, were performed at fixed time intervals. Data were analysed using linear mixed models and Tukey's corrections model for multiple comparisons.

Hy-HSQGTFTSDYSKYLD-Aib-ARAEEFVKWLEST-OH [Compound 1, glucagon analogue (dasiglucagon)]
time spent in level 2 hypoglycaemia (<3.1 mmol/l) (80 μg subcutaneous, p>0.05): 7 ± 5 min | nadir PG (80 μg subcutaneous, p=0.002): 3.9 ± 0.3 mmol/L | time spent in hypoglycaemia (<3.9 mmol/l) (80 μg subcutaneous, p=0.05): 27.5 ± 12 min | PG incremental AUC (iAUC70-240 min) after drug administration (80 μg subcutaneous): 917 ± 22 mmol·min/L | participants who experienced level 2 hypoglycaemia (<3.1 mmol/l) (200 μg subcutaneous, five participants after placebo): none | time spent in level 2 hypoglycaemia (<3.1 mmol/l) (200 μg subcutaneous, p=0.01): 0.0 ± 0 min | nadir PG (200 μg subcutaneous, p=0.0002): 4.5 ± 0.2 mmol/L | time spent in hypoglycaemia (<3.9 mmol/l) (200 μg subcutaneous, p=0.003): 14.0 ± 9 min | PG incremental AUC (iAUC70-240 min) after drug administration (200 μg subcutaneous): 992 ± 28 mmol·min/L | changes in hypoglycaemic symptoms (Edinburgh Hypoglycaemia Symptom Scale) (between the three study days (placebo, 80 and 200 μg)): no significant changes
